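A five-concentration, 48-hour dose response in 96-well plates underlies each endpoint, interpolated linearly between surrounding concentrations. GI50 = concentration required for 50% inhibition of growth. TGI: total growth inhibition.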
Key:
Assay in all cases: NCI tumour cell line growth inhibition, 48 h
SNB-75 CNS = test system: SNB-75 CNS
SF-268 CNS = test system: SF-268 CNS
DU-145 prostate = test system: DU-145 prostate
IGROV1 ovarian = test system: IGROV1 ovarian
SR leukemia = test system: SR leukemia
ACHN renal = test system: ACHN renal
COLO 205 colon = test system: COLO 205 colon
LOX IMVI melanoma = test system: LOX IMVI melanoma
EKVX NSCLC = test system: EKVX NSCLC
KM12 colon = test system: KM12 colon
NCI-H23 lung = test system: NCI-H23 lung
SK-MEL-5 melanoma = test system: SK-MEL-5 melanoma
TK-10 renal = test system: TK-10 renal
SN12C renal = test system: SN12C renal
SK-MEL-2 melanoma = test system: SK-MEL-2 melanoma
NCI-H460 lung = test system: NCI-H460 lung
T-47D breast = test system: T-47D breast
MALME-3M melanoma = test system: MALME-3M melanoma
HCT-116 colon = test system: HCT-116 colon
A498 renal = test system: A498 renal
UO-31 renal = test system: UO-31 renal
NCI/ADR-RES ovarian = test system: NCI/ADR-RES ovarian
SK-MEL-28 melanoma = test system: SK-MEL-28 melanoma
MOLT-4 leukemia = test system: MOLT-4 leukemia
HT29 colon = test system: HT29 colon
HOP-92 NSCLC = test system: HOP-92 NSCLC
HL-60(TB) leukemia = test system: HL-60(TB) leukemia
NCI-H226 lung = test system: NCI-H226 lung
M14 melanoma = test system: M14 melanoma
HS 578T breast = test system: HS 578T breast
PC-3 prostate = test system: PC-3 prostate
SF-539 CNS = test system: SF-539 CNS
HCT-15 colon = test system: HCT-15 colon
SF-295 CNS = test system: SF-295 CNS
BT-549 breast = test system: BT-549 breast
OVCAR-4 ovarian = test system: OVCAR-4 ovarian
SW-620 colon = test system: SW-620 colon
UACC-257 melanoma = test system: UACC-257 melanoma
OVCAR-5 ovarian = test system: OVCAR-5 ovarian
HCC-2998 colon = test system: HCC-2998 colon
CCRF-CEM leukemia = test system: CCRF-CEM leukemia
MCF7 breast = test system: MCF7 breast
U251 CNS = test system: U251 CNS
OVCAR-8 ovarian = test system: OVCAR-8 ovarian
MDA-MB-231 breast = test system: MDA-MB-231 breast
SNB-19 CNS = test system: SNB-19 CNS
HOP-62 NSCLC = test system: HOP-62 NSCLC
CAKI-1 renal = test system: CAKI-1 renal
NCI-H522 lung = test system: NCI-H522 lung
MDA-MB-435 = test system: MDA-MB-435
786-0 renal = test system: 786-0 renal
A549 NSCLC = test system: A549 NSCLC
SK-OV-3 ovarian = test system: SK-OV-3 ovarian
K-562 leukemia = test system: K-562 leukemia
RXF 393 renal = test system: RXF 393 renal
UACC-62 melanoma = test system: UACC-62 melanoma
OVCAR-3 ovarian = test system: OVCAR-3 ovarian
RPMI-8226 leukemia = test system: RPMI-8226 leukemia

In the case of Cn1c2ccccc2n2c(=O)c(-c3ccc(O)cc3)nnc12, the TGI (SNB-75 CNS) is reported as 75 µM, the TGI (SF-268 CNS) is reported as over 100 µM and the TGI (DU-145 prostate) is reported as over 100 µM. The TGI (IGROV1 ovarian) was over 100 µM, the TGI (SR leukemia) was over 100 µM and the TGI (ACHN renal) was over 100 µM. It also gave a TGI (COLO 205 colon) of over 100 µM, a TGI (LOX IMVI melanoma) of over 100 µM and a TGI (EKVX NSCLC) of over 100 µM. For the same compound, the TGI (KM12 colon) was over 100 µM, the TGI (NCI-H23 lung) was over 100 µM and the TGI (SK-MEL-5 melanoma) was over 100 µM. It also gave a TGI (TK-10 renal) of over 100 µM, a TGI (SN12C renal) of over 100 µM and a TGI (SK-MEL-2 melanoma) of over 100 µM. For the same compound, the TGI (NCI-H460 lung) was over 100 µM, the TGI (T-47D breast) was over 100 µM and the TGI (MALME-3M melanoma) was over 100 µM. For the same compound, the TGI (HCT-116 colon) was over 100 µM, the TGI (A498 renal) was over 100 µM and the TGI (UO-31 renal) was over 100 µM. For the same compound, the TGI (NCI/ADR-RES ovarian) was over 100 µM, the TGI (SK-MEL-28 melanoma) was over 100 µM and the TGI (MOLT-4 leukemia) was over 100 µM. For the same compound, the TGI (HT29 colon) was over 100 µM, the TGI (HOP-92 NSCLC) was over 100 µM and the TGI (HL-60(TB) leukemia) was over 100 µM. It also gave a TGI (NCI-H226 lung) of over 100 µM, a TGI (M14 melanoma) of over 100 µM and a TGI (HS 578T breast) of over 100 µM. It also gave a TGI (PC-3 prostate) of over 100 µM, a TGI (SF-539 CNS) of over 100 µM and a TGI (HCT-15 colon) of over 100 µM. It also gave a TGI (SF-295 CNS) of over 100 µM, a TGI (BT-549 breast) of over 100 µM and a TGI (OVCAR-4 ovarian) of over 100 µM. The TGI (SW-620 colon) was over 100 µM, the TGI (UACC-257 melanoma) was over 100 µM and the TGI (OVCAR-5 ovarian) was over 100 µM. It also gave a TGI (HCC-2998 colon) of over 100 µM, a TGI (CCRF-CEM leukemia) of over 100 µM and a TGI (MCF7 breast) of over 100 µM. For the same compound, the TGI (U251 CNS) was 85.8 µM, the TGI (OVCAR-8 ovarian) was over 100 µM and the TGI (MDA-MB-231 breast) was over 100 µM. The TGI (SNB-19 CNS) was over 100 µM, the TGI (HOP-62 NSCLC) was over 100 µM and the TGI (CAKI-1 renal) was over 100 µM. For the same compound, the TGI (NCI-H522 lung) was over 100 µM, the TGI (MDA-MB-435) was over 100 µM and the TGI (786-0 renal) was over 100 µM. The TGI (A549 NSCLC) was over 100 µM.
With Cn1c2ccccc2c2c3c(c4c5ccccc5n(CCCCCC#N)c4c21)C(=O)N(O)C3=O the GI50 (SNB-75 CNS) was 0.43 µM, the TGI (SNB-75 CNS) was 6.2 µM and the GI50 (SF-268 CNS) was 0.624 µM. The TGI (SF-268 CNS) was over 100 µM, the GI50 (DU-145 prostate) was 0.381 µM and the TGI (DU-145 prostate) was over 100 µM. The GI50 (IGROV1 ovarian) was 1.59 µM, the TGI (IGROV1 ovarian) was 4.61 µM and the GI50 (SR leukemia) was 0.333 µM. The TGI (SR leukemia) was over 100 µM, the GI50 (SK-OV-3 ovarian) was 0.596 µM and the TGI (SK-OV-3 ovarian) was 7.45 µM. It also gave a GI50 (ACHN renal) of 0.317 µM, a TGI (ACHN renal) of 1.19 µM and a GI50 (COLO 205 colon) of 2.5 µM. For the same compound, the TGI (COLO 205 colon) was 9.09 µM, the GI50 (LOX IMVI melanoma) was 0.167 µM and the TGI (LOX IMVI melanoma) was 1.24 µM. The GI50 (EKVX NSCLC) was 2.67 µM, the TGI (EKVX NSCLC) was over 100 µM and the GI50 (KM12 colon) was 1.5 µM. For the same compound, the TGI (KM12 colon) was 5.95 µM, the GI50 (NCI-H23 lung) was 1.18 µM and the TGI (NCI-H23 lung) was 9.91 µM. It also gave a GI50 (SK-MEL-5 melanoma) of 0.319 µM, a TGI (SK-MEL-5 melanoma) of 1.09 µM and a GI50 (TK-10 renal) of 3.94 µM. For the same compound, the TGI (TK-10 renal) was 40 µM, the GI50 (SN12C renal) was 0.453 µM and the TGI (SN12C renal) was 20.9 µM. It also gave a GI50 (SK-MEL-2 melanoma) of 1.54 µM, a TGI (SK-MEL-2 melanoma) of 3.84 µM and a GI50 (NCI-H460 lung) of 0.377 µM. The TGI (NCI-H460 lung) was 2.34 µM, the GI50 (T-47D breast) was 0.419 µM and the TGI (T-47D breast) was 6.89 µM. It also gave a GI50 (MALME-3M melanoma) of 2.22 µM, a TGI (MALME-3M melanoma) of 7.05 µM and a GI50 (HCT-116 colon) of 0.87 µM. For the same compound, the TGI (HCT-116 colon) was 4.14 µM, the GI50 (A498 renal) was 1.21 µM and the TGI (A498 renal) was 3.56 µM. The GI50 (UO-31 renal) was 0.374 µM, the TGI (UO-31 renal) was 1.97 µM and the GI50 (NCI/ADR-RES ovarian) was 0.873 µM. The TGI (NCI/ADR-RES ovarian) was 24.2 µM, the GI50 (SK-MEL-28 melanoma) was 1.72 µM and the TGI (SK-MEL-28 melanoma) was 9.91 µM. It also gave a GI50 (HT29 colon) of 1.65 µM, a TGI (HT29 colon) of 3.36 µM and a GI50 (HOP-92 NSCLC) of 1.77 µM. The TGI (HOP-92 NSCLC) was 6.99 µM, the GI50 (K-562 leukemia) was 0.71 µM and the TGI (K-562 leukemia) was over 100 µM. For the same compound, the GI50 (HL-60(TB) leukemia) was 0.381 µM, the TGI (HL-60(TB) leukemia) was 1.81 µM and the GI50 (NCI-H226 lung) was 1.6 µM. The TGI (NCI-H226 lung) was 7.14 µM, the GI50 (M14 melanoma) was 0.39 µM and the TGI (M14 melanoma) was over 100 µM. For the same compound, the GI50 (HS 578T breast) was 3.25 µM, the TGI (HS 578T breast) was 41.9 µM and the GI50 (PC-3 prostate) was 2.22 µM. It also gave a TGI (PC-3 prostate) of 8.4 µM, a GI50 (SF-539 CNS) of 0.295 µM and a TGI (SF-539 CNS) of 1.1 µM. The GI50 (HCT-15 colon) was 1.82 µM, the TGI (HCT-15 colon) was 50.9 µM and the GI50 (SF-295 CNS) was 3.03 µM. For the same compound, the TGI (SF-295 CNS) was 9.71 µM, the GI50 (BT-549 breast) was 2.5 µM and the TGI (BT-549 breast) was 88.7 µM. For the same compound, the GI50 (OVCAR-4 ovarian) was 1.91 µM, the TGI (OVCAR-4 ovarian) was 9.33 µM and the GI50 (SW-620 colon) was 0.732 µM. It also gave a TGI (SW-620 colon) of over 100 µM, a GI50 (RXF 393 renal) of 1.83 µM and a TGI (RXF 393 renal) of 7.75 µM. It also gave a GI50 (UACC-257 melanoma) of 1.65 µM, a TGI (UACC-257 melanoma) of 5.22 µM and a GI50 (OVCAR-5 ovarian) of 2.43 µM. It also gave a TGI (OVCAR-5 ovarian) of 8.04 µM, a GI50 (HCC-2998 colon) of 2.57 µM and a TGI (HCC-2998 colon) of 38.5 µM. It also gave a GI50 (CCRF-CEM leukemia) of 0.374 µM, a TGI (CCRF-CEM leukemia) of over 100 µM and a GI50 (MCF7 breast) of 0.299 µM. For the same compound, the TGI (MCF7 breast) was 27.9 µM, the GI50 (UACC-62 melanoma) was 0.465 µM and the TGI (UACC-62 melanoma) was 2.03 µM. For the same compound, the GI50 (U251 CNS) was 0.33 µM, the TGI (U251 CNS) was 1.51 µM and the GI50 (OVCAR-8 ovarian) was 0.759 µM. For the same compound, the TGI (OVCAR-8 ovarian) was 10.8 µM, the GI50 (MDA-MB-231 breast) was 2.34 µM and the TGI (MDA-MB-231 breast) was 7.92 µM. The GI50 (SNB-19 CNS) was 0.545 µM, the TGI (SNB-19 CNS) was over 100 µM and the GI50 (OVCAR-3 ovarian) was 1.29 µM. The TGI (OVCAR-3 ovarian) was 7.9 µM, the GI50 (HOP-62 NSCLC) was 0.42 µM and the TGI (HOP-62 NSCLC) was 5.65 µM. The GI50 (CAKI-1 renal) was 1.37 µM, the TGI (CAKI-1 renal) was 3.03 µM and the GI50 (NCI-H522 lung) was 0.268 µM. For the same compound, the TGI (NCI-H522 lung) was 1.42 µM, the GI50 (MDA-MB-435) was 0.788 µM and the TGI (MDA-MB-435) was 9.59 µM. For the same compound, the GI50 (786-0 renal) was 1.59 µM, the TGI (786-0 renal) was 3.81 µM and the GI50 (A549 NSCLC) was 1.68 µM. It also gave a TGI (A549 NSCLC) of 50.4 µM, a GI50 (RPMI-8226 leukemia) of 0.609 µM and a TGI (RPMI-8226 leukemia) of 4.65 µM.

— PubChem BioAssay (NCI)
